# How the values were obtained:
# Experiment in all cases: radiometric filter-binding kinase assay, Kinase HotSpot
# Conditions in all cases: compound 0.5 µM; ATP 10 µM
# FGFR2 (human) = FGFR2 (human) (UniProt P21802)
# DYRK3 (human) = DYRK3 (human) (UniProt O43781)
# EPHA3 (human) = EPHA3 (human) (UniProt P29320)
# TTK (human) = TTK (human) (UniProt P33981)
# CAMK2A (human) = CAMK2A (human) (UniProt Q9UQM7)
# ROCK1 (human) = ROCK1 (human) (UniProt Q13464)
# MAPKAPK2 (human) = MAPKAPK2 (human) (UniProt P49137)
# RAF1 (human) = RAF1 (human) (UniProt P04049)
# Chain of RAF1 (human) (P04049 whole entry, looked up): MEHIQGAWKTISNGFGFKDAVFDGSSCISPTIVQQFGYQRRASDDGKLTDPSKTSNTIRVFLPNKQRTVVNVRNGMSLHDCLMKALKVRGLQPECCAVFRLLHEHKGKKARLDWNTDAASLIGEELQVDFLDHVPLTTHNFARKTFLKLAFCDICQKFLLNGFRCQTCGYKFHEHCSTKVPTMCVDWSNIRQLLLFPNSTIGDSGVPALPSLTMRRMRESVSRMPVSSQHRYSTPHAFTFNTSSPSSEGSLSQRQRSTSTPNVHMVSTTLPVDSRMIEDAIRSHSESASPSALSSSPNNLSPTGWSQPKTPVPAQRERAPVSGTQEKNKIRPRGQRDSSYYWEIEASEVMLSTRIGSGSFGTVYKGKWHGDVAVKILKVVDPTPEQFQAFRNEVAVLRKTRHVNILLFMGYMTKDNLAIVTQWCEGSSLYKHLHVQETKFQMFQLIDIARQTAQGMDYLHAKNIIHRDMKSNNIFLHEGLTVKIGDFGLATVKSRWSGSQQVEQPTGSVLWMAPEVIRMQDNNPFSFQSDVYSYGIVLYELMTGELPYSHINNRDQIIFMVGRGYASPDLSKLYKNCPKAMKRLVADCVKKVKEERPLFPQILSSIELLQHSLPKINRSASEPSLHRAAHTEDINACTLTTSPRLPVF
# GRK4 (human) = GRK4 (human) (UniProt P32298)
# CDK1 CCNB1 (human) = CDK1 CCNB1 (human) (UniProt P06493+P14635)
# PAK1 (human) = PAK1 (human) (UniProt Q13153)
# MYLK (human) = MYLK (human) (UniProt Q15746)
# RPS6KA1 KD1 KD2 (human) = RPS6KA1 KD1 KD2 (human) (UniProt Q15418)
# Chain of RPS6KA1 KD1 KD2 (human) (Q15418 whole entry, looked up): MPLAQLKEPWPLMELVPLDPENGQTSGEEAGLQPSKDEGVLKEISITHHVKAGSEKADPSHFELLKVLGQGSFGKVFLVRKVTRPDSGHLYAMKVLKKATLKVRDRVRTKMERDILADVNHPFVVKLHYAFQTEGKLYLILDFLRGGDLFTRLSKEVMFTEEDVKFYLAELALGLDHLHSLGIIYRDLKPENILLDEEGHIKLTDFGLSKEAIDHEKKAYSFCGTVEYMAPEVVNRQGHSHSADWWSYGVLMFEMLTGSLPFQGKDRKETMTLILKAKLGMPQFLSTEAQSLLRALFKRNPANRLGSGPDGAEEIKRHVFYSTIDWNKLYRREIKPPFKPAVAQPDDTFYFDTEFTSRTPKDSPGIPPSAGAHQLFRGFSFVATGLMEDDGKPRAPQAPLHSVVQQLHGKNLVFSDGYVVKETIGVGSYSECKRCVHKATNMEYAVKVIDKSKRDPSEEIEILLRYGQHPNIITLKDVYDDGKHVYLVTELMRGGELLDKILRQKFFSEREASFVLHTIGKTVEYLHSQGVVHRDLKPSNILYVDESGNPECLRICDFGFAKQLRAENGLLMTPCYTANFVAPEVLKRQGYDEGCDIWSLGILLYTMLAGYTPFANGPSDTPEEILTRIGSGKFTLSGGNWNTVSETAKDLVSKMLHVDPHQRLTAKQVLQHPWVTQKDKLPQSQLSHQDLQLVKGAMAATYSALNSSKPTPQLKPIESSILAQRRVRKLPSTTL
# TAOK3 (human) = TAOK3 (human) (UniProt Q9H2K8)
# NUAK2 (human) = NUAK2 (human) (UniProt Q9H093)
# Chain of NUAK2 (human) (Q9H093 whole entry, looked up): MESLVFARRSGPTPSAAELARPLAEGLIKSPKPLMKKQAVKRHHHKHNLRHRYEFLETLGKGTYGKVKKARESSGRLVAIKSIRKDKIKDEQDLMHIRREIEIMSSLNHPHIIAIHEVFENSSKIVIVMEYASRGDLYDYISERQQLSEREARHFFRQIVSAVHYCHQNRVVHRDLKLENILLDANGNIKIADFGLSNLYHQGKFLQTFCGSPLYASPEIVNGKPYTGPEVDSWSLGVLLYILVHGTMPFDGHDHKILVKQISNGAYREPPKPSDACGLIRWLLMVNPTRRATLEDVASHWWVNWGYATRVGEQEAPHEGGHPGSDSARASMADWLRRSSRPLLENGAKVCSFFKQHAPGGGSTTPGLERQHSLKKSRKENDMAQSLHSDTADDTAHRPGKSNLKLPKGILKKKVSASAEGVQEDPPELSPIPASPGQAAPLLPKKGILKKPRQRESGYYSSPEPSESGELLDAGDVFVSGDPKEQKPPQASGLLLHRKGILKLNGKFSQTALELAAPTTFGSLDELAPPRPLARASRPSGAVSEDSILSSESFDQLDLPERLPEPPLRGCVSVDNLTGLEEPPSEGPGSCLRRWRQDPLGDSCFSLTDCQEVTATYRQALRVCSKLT
# MERTK (human) = MERTK (human) (UniProt Q12866)
# NLK (human) = NLK (human) (UniProt Q9UBE8)
# EPHA8 (human) = EPHA8 (human) (UniProt P29322)
# STK17A (human) = STK17A (human) (UniProt Q9UEE5)
# NEK9 (human) = NEK9 (human) (UniProt Q8TD19)
# NEK2 (human) = NEK2 (human) (UniProt P51955)
# MKNK2 (human) = MKNK2 (human) (UniProt Q9HBH9)
# RET (human) = RET (human) (UniProt P07949)
# PAK4 (human) = PAK4 (human) (UniProt O96013)
# HIPK1 (human) = HIPK1 (human) (UniProt Q86Z02)
# EPHA2 (human) = EPHA2 (human) (UniProt P29317)
# PTK6 (human) = PTK6 (human) (UniProt Q13882)
# INSR (human) = INSR (human) (UniProt P06213)
# PAK2 (human) = PAK2 (human) (UniProt Q13177)
# MAPK1 (human) = MAPK1 (human) (UniProt P28482)
# INSRR (human) = INSRR (human) (UniProt P14616)
# SGK3 (human) = SGK3 (human) (UniProt Q96BR1)
# ADRBK2 (human) = ADRBK2 (human) (UniProt P35626)
# MYLK2 (human) = MYLK2 (human) (UniProt Q9H1R3)
# CAMK4 (human) = CAMK4 (human) (UniProt Q16566)
# PRKCG (human) = PRKCG (human) (UniProt P05129)
# PIM3 (human) = PIM3 (human) (UniProt Q86V86)
# CAMKK1 (human) = CAMKK1 (human) (UniProt Q8N5S9)
# CSNK2A1 (human) = CSNK2A1 (human) (UniProt P68400)
# ULK2 (human) = ULK2 (human) (UniProt Q8IYT8)
# SRPK2 (human) = SRPK2 (human) (UniProt P78362)
# MARK2 (human) = MARK2 (human) (UniProt Q7KZI7)
# Chain of EPHA3 (human) (P29320 whole entry, looked up): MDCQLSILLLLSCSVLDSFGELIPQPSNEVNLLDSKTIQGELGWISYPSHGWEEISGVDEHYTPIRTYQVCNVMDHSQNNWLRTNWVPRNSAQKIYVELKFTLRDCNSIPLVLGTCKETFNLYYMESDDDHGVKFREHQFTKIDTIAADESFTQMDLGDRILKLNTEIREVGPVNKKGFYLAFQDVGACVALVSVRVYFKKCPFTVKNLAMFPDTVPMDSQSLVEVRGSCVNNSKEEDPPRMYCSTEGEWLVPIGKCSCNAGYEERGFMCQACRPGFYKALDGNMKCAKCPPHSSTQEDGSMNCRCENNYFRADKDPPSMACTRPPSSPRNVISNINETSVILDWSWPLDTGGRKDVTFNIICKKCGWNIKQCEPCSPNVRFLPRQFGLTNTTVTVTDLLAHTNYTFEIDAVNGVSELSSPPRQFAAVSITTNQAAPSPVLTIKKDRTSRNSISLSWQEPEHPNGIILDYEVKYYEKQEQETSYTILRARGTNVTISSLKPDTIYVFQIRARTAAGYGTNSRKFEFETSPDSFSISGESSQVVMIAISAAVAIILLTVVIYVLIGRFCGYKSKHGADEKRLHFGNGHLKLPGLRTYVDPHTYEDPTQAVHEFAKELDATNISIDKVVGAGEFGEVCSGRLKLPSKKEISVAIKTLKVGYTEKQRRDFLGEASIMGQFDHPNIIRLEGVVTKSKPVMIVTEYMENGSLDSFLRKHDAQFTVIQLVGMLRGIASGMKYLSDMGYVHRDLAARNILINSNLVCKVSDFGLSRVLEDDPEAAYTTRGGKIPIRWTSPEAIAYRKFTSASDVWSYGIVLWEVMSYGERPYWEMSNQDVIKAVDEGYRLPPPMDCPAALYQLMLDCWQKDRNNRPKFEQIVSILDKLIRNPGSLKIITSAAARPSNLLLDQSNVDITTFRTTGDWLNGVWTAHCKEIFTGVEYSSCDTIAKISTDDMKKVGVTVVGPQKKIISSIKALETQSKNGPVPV
# Chain of DYRK3 (human) (O43781 whole entry, looked up): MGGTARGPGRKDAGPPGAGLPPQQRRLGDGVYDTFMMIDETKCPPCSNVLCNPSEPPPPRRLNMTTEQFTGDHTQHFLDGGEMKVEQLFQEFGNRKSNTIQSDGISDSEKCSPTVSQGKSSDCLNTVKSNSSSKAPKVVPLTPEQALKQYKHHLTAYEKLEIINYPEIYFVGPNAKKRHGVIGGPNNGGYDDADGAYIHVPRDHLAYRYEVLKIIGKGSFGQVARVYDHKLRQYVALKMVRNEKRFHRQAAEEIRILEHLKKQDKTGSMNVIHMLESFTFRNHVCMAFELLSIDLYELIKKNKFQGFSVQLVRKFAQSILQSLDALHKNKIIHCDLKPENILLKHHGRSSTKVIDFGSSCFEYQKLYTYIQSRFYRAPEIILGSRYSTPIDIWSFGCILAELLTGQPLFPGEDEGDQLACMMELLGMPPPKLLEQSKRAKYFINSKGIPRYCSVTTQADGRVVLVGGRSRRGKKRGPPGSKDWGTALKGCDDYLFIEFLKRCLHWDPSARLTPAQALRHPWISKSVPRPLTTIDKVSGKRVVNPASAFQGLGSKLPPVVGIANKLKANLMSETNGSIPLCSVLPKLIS
# Chain of ROCK1 (human) (Q13464 whole entry, looked up): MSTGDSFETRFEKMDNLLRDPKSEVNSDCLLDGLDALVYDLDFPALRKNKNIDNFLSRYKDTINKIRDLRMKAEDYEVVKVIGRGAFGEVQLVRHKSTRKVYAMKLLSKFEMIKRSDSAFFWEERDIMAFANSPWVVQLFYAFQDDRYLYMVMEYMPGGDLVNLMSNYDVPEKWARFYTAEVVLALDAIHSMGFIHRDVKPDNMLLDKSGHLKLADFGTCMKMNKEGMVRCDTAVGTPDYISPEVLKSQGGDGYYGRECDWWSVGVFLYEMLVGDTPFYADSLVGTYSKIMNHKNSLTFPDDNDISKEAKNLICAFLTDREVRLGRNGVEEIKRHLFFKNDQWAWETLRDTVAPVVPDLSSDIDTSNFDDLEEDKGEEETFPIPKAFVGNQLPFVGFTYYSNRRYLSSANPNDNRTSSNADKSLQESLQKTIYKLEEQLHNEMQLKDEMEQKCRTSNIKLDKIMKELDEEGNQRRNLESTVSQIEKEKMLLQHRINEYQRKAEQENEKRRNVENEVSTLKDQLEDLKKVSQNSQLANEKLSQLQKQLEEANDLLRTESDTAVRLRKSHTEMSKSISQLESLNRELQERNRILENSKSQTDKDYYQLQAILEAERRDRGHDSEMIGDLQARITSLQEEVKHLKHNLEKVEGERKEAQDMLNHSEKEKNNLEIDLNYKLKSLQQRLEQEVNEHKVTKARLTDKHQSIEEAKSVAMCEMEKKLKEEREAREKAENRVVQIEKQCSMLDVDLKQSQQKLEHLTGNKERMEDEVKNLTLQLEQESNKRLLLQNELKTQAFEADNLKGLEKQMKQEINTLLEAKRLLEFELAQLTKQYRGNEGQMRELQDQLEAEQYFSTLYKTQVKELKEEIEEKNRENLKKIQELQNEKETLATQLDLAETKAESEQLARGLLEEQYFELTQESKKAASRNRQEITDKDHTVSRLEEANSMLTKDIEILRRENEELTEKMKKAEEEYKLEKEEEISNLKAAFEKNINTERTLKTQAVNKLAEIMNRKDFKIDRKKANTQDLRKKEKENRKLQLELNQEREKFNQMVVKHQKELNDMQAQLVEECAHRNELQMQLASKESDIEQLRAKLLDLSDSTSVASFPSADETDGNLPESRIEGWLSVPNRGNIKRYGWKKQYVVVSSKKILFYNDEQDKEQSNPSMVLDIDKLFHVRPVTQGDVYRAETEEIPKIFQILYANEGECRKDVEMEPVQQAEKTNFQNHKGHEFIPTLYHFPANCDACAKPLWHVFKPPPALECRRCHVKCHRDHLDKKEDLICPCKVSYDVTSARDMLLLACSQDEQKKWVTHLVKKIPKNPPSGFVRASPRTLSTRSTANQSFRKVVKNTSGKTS
smiles,measurement,setting,value
O=C1NC(=O)C(c2c[nH]c3ccccc23)=C1c1c[nH]c2ccccc12,residual activity,FGFR2 (human),89.4%
same,residual activity,DYRK3 (human),101%
same,residual activity,EPHA3 (human),95.1%
same,residual activity,TTK (human),106%
same,residual activity,CAMK2A (human),85.3%
same,residual activity,ROCK1 (human),97.4%
same,residual activity,MAPKAPK2 (human),95.6%
same,residual activity,RAF1 (human),122%
same,residual activity,GRK4 (human),97.1%
same,residual activity,CDK1 CCNB1 (human),96.5%
same,residual activity,PAK1 (human),83.5%
same,residual activity,MYLK (human),74.4%
same,residual activity,RPS6KA1 KD1 KD2 (human),57.6%
same,residual activity,TAOK3 (human),85.2%
same,residual activity,NUAK2 (human),86%
same,residual activity,MERTK (human),86.1%
same,residual activity,NLK (human),103%
same,residual activity,EPHA8 (human),103%
same,residual activity,STK17A (human),92.2%
same,residual activity,NEK9 (human),97.3%
same,residual activity,NEK2 (human),102%
same,residual activity,MKNK2 (human),89.6%
same,residual activity,RET (human),80.6%
same,residual activity,PAK4 (human),102%
same,residual activity,HIPK1 (human),102%
same,residual activity,EPHA2 (human),91.6%
same,residual activity,PTK6 (human),84.6%
same,residual activity,INSR (human),99.6%
same,residual activity,PAK2 (human),97%
same,residual activity,MAPK1 (human),90.5%
same,residual activity,INSRR (human),90.1%
same,residual activity,SGK3 (human),97.9%
same,residual activity,ADRBK2 (human),87%
same,residual activity,MYLK2 (human),91.9%
same,residual activity,CAMK4 (human),100%
same,residual activity,PRKCG (human),91.4%
same,residual activity,PIM3 (human),32.7%
same,residual activity,CAMKK1 (human),114%
same,residual activity,CSNK2A1 (human),106%
same,residual activity,ULK2 (human),92.9%
same,residual activity,SRPK2 (human),84.3%
same,residual activity,MARK2 (human),88.9%
Cn1cnc2cc3c(Nc4cccc(Br)c4)ncnc3cc21,residual activity,FGFR2 (human),98%
same,residual activity,DYRK3 (human),102%
same,residual activity,EPHA3 (human),82.9%
same,residual activity,TTK (human),95.7%
same,residual activity,CAMK2A (human),102%
same,residual activity,ROCK1 (human),98.6%
same,residual activity,MAPKAPK2 (human),104%
same,residual activity,RAF1 (human),98.6%
same,residual activity,GRK4 (human),99.5%
same,residual activity,CDK1 CCNB1 (human),97.9%
same,residual activity,PAK1 (human),91.4%
same,residual activity,MYLK (human),83.3%
same,residual activity,RPS6KA1 KD1 KD2 (human),103%
same,residual activity,TAOK3 (human),97.6%
same,residual activity,NUAK2 (human),102%
same,residual activity,MERTK (human),77.5%
same,residual activity,NLK (human),100%
same,residual activity,EPHA8 (human),85.4%
same,residual activity,STK17A (human),82.5%
same,residual activity,NEK9 (human),90%
same,residual activity,NEK2 (human),103%
same,residual activity,MKNK2 (human),32.2%
same,residual activity,RET (human),54.4%
same,residual activity,PAK4 (human),105%
same,residual activity,HIPK1 (human),108%
same,residual activity,EPHA2 (human),81.8%
same,residual activity,PTK6 (human),54%
same,residual activity,INSR (human),94.4%
same,residual activity,PAK2 (human),99.8%
same,residual activity,MAPK1 (human),94.2%
same,residual activity,INSRR (human),92.1%
same,residual activity,SGK3 (human),107%
same,residual activity,ADRBK2 (human),89.9%
same,residual activity,MYLK2 (human),87.6%
same,residual activity,CAMK4 (human),98.6%
same,residual activity,PRKCG (human),93.9%
same,residual activity,PIM3 (human),104%
same,residual activity,CAMKK1 (human),107%
same,residual activity,CSNK2A1 (human),99%
same,residual activity,ULK2 (human),74.8%
same,residual activity,SRPK2 (human),97.1%
same,residual activity,MARK2 (human),96.6%
CC(C)[C@H](CO)Nc1nc(Nc2cc(N)cc(Cl)c2)c2ncn(C(C)C)c2n1,residual activity,FGFR2 (human),97.3%
same,residual activity,DYRK3 (human),103%
same,residual activity,EPHA3 (human),86.6%
same,residual activity,TTK (human),84.5%
same,residual activity,CAMK2A (human),83.9%
same,residual activity,ROCK1 (human),90%
same,residual activity,MAPKAPK2 (human),92.8%
same,residual activity,RAF1 (human),113%
same,residual activity,GRK4 (human),103%
same,residual activity,PAK1 (human),81.8%
same,residual activity,MYLK (human),81.3%
same,residual activity,RPS6KA1 KD1 KD2 (human),37.2%
same,residual activity,TAOK3 (human),86.9%
same,residual activity,NUAK2 (human),81.4%
same,residual activity,MERTK (human),79.7%
same,residual activity,NLK (human),93.9%
same,residual activity,EPHA8 (human),92.5%
same,residual activity,STK17A (human),96.3%
same,residual activity,NEK9 (human),69.4%
same,residual activity,NEK2 (human),94.4%
same,residual activity,MKNK2 (human),113%
same,residual activity,RET (human),61.6%
same,residual activity,PAK4 (human),102%
same,residual activity,HIPK1 (human),99.2%
same,residual activity,EPHA2 (human),67.5%
same,residual activity,PTK6 (human),85.6%
same,residual activity,INSR (human),85%
same,residual activity,PAK2 (human),95.5%
same,residual activity,MAPK1 (human),95.4%
same,residual activity,INSRR (human),70.8%
same,residual activity,SGK3 (human),99.9%
same,residual activity,ADRBK2 (human),97.1%
same,residual activity,MYLK2 (human),99.5%
same,residual activity,CAMK4 (human),97.4%
same,residual activity,PRKCG (human),107%
same,residual activity,PIM3 (human),93%
same,residual activity,CAMKK1 (human),86.8%
same,residual activity,CSNK2A1 (human),99.3%
same,residual activity,ULK2 (human),74.9%
same,residual activity,SRPK2 (human),31%
same,residual activity,MARK2 (human),74.1%
